Test results published in US6107549A, “Genetically engineered plant resistance to thiazopyr and other pyridine herbicides” (Monsanto Company, priority 1999, dated 2000).
Where two headings read alike, the source gives them in different places.

Tests used:
pyridine-esterase = target: T1, pyridine-esterase (Oryctolagus cuniculus, UniProt P12337, A196R/H30K); format: biochemical, rabbit; settings: tobacco line #37437 extract, FIG. 4
T1 construct: made in house; host or cells: transgenic tobacco (Samson) and tomato (UC82B) plants, tissue extracts
T1 sequence (P12337 19-565 H30K/A196R): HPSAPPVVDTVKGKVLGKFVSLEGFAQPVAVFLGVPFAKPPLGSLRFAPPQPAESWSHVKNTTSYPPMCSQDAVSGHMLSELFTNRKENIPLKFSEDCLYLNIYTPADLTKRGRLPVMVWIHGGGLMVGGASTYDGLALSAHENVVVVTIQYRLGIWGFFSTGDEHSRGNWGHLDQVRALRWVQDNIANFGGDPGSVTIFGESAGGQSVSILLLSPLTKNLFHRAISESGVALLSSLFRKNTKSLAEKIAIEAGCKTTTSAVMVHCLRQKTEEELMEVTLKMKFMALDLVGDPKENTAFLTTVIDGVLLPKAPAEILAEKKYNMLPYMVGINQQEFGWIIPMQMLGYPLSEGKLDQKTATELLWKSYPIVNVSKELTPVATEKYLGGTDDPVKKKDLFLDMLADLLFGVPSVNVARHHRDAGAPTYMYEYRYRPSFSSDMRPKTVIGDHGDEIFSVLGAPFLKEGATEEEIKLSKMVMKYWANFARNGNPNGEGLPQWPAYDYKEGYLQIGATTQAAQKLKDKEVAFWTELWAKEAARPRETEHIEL
Protocol: (§1) Esterase activity assays. Esterase activity was measured in vitro by conversion of either [^14 C]thiazopyr or [^14 C]MON 14300 to their corresponding monoacid. Pyridine-esterase activity was assayed during protein purification and from tissue extracts of transgenic plants. The homogenizing buffer for plant tissues consisted of 100 mM Tris pH 8.0, 1 mM EDTA, 1 mM DTT, and 10% glycerol in water. Plant tissues (1 g/ml buffer) including leaves, seeds, flowers, seedlings, etc. were homogenized in conical centrifuge tubes using a spinning pestle at 4° C. Following centrifugation (12,000× g), the supernatant (250 μl) was assayed immediately for esterase activity by incubation with [^14 C]thiazopyr or [^14 C]MON 14300 (4 μg) in 0.1 M Tris pH 8.0 buffer (50 μl) at 37° C. The reaction was sampled (100 μL) at various times (0.5 to 100 hr) to generate a kinetic profile of monoacid formation. The reaction was stopped by addition of 1% trifluoroacetic acid in acetonitrile (v/v, 150 μl). Following centrifugation (12,000× g for 3 min), the supernatant was analyzed by HPLC/RAD (radioactivity detection) to resolve the monoacid from the parent herbicide and other metabolites. Control reactions in the absence of the esterase recovered un-reacted thiazopyr or MON 14300 for the duration of experiments. Esterase activity was also assayed during protein purification following a similar procedure except a single time-point (1-2 hrs) of incubation was selected within the linear range of reaction. In vitro assays also employed three commonly used calorimetric (p-nitrophenyl butyrate) or fluorescent (4-methyl umbelliferyl butyrate and 5-bromo-4-chloro-3-indolylacetate) substrates. These substrates are useful in rapidly and qualitatively detecting general esterase activity.
Tissue extracts from 3 tobacco R1 seedlings were employed for further studies. Two of the lines (#37437 and #37432) expressed high levels of esterase (~0.5%) and one line (#37436) which expressed no pyridine-esterase was used as negative control. Tissue extracts were incubated with [^14 C]MON 14300 and formation of the monoacid monitored with time. […] In comparison, less that 2% monoacid was detected in line (#37436). […] First, pyridine-esterase was capable of driving the hydrolysis reaction to completion with no apparent product inhibition, and second, there was no endogenous esterase activity in tobacco which catalyzed MON 14300 hydrolysis.

RLE3 = target: T2, RLE3 (Oryctolagus cuniculus, UniProt P12337, A196R/H30K); assay: Esterase activity of RLE3 cDNA expressed in insect cells; format: biochemical, rabbit; settings: culture media from RLE3 cells; esterase inhibitor
T2 construct: 19-residue synthetic ER signal peptide (design based on the homologous rat esterase, Robbi et al. 1990; Ala added after Met) (N); made in house; host or cells: Spodoptera frugiperda SF9 cells, baculovirus
T2 sequence (P12337 with tags, fused parts or gaps H30K/A196R): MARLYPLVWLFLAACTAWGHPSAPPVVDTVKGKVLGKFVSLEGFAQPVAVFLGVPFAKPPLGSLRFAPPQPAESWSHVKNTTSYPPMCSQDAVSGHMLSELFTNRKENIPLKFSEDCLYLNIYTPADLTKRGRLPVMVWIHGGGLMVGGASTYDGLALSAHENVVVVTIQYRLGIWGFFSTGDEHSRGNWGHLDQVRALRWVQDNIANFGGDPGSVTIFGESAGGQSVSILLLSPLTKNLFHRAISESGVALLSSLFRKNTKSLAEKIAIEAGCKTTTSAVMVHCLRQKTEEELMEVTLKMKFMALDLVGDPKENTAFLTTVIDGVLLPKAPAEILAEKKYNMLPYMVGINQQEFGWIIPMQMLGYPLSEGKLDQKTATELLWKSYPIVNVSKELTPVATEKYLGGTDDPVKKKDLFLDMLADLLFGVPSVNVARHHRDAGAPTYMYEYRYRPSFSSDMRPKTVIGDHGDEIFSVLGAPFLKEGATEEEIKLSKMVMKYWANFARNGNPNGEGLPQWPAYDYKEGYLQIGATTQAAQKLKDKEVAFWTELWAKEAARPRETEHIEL
Protocol: as §1
Expression of RLE1 and RLE3 cDNAs in insect cells. Mature rabbit liver esterases are glycoproteins which reside in the lumen of the endoplasmic reticulum (ER) (Korza et al., 1988). […]

[1] = Feng et al., 1995b; cited from earlier work

CSC(=O)c1c(C(F)F)nc(C(F)(F)F)c(C(=O)SC)c1CC(C)C [Dithiopyr, dithiopyr]
hydrolysis by pyridine-esterase (substrate specificity) (pyridine-esterase): not hydrolyzed

COC(=O)c1c(Cl)nn(C)c1S(=O)(=O)NC(=O)Nc1nc(OC)cc(OC)n1
hydrolysis by pyridine-esterase (substrate specificity) (pyridine-esterase): little to no hydrolysis | hydrolysis by pyridine-esterase (substrate specificity) (pyridine-esterase; listed as halosulfiron): not

O=[N+]([O-])c1ccc(OP(=O)(O)Oc2ccc([N+](=O)[O-])cc2)cc1 [bis(p-nitropheyl) phosphate]
inactivation of esterase activity (RLE3): inactivated

CC(C)Cc1c(C(=O)O)c(C(F)F)nc(C(F)(F)F)c1C1=NCCS1 [monoacid metabolite]
herbicidal activity [1]: virtually devoid of any herbicidal activity
